The compounds below were run against human P2X7 receptor (Homo sapiens, UniProt Q99572, R270H/Y155H) (assay: Evaluation of human P2X7 receptor inhibitory activity (Yo-Pro uptake, BzATP stimulation, FLIPR TETRA)). Details: 1321N1 cells stably expressing human P2X7 receptor; BzATP stimulation, Yo-Pro uptake; read-out: IC50 (antagonistic activity for the human P2X7 receptor).
Type: cell-based
Outline: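 Yo-Pro dye uptake triggered by BzATP was monitored by FLIPR in human P2X7-transfected 1321N1 cells (SNP variant) in HEPES-buffered HBSS, pH 7.4-7.5. Compound was dispensed 8 min post-stimulation, then signal read for 20 min; IC50 derived logistically from inhibition of the fluorescence range.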

| SMILES | IC50 |
| --- | --- |
| COc1cn(Cc2cc(F)c(F)cc2F)c(Nc2cccc(Cl)c2C)nc1=O [Compound I-0347] | 0.02 µM |
| Cc1ccc(C)c(Nc2nc(=NO)c(F)cn2Cc2cc(F)c(F)c(F)c2)c1 [Compound I-1290] | 0.021 µM |
| COc1cn(Cc2cc(F)cc(F)c2)c(Nc2cc3c(cc2C)OCC3)nc1=O [Compound I-0865] | 0.008 µM |
| Cc1cc2c(cc1Nc1nc(=O)c(Cl)cn1Cc1ccccc1)OCCO2 [Compound I-0370] | 0.047 µM |
| COc1cn(Cc2ccccc2)c(Nc2cccc3c2CCO3)nc1=O [Compound I-0120] | 0.67 µM |
| Cc1nc2cc(C)c(Nc3nc(=O)c(Cl)cn3Cc3ccccc3)cc2s1 [Compound I-0786] | 0.025 µM |
| COc1ccccc1Nc1nc(=O)c(OC)cn1Cc1ccc(F)c(F)c1 [Compound I-0675] | 0.19 µM |

Same assay, conditions: 1321N1 cells stably expressing human P2X7 receptor; BzATP stimulation, Yo-Pro uptake; read-out: IC50 (antagonistic activity for the human P2X7 receptor), class symbol

| SMILES | IC50 |
| --- | --- |
| COc1cn(Cc2ccccc2)c(Nc2cccc(Oc3ccccn3)c2C)nc1=O [Compound I-0198] | 0.1 to 0.5 µM |
| COc1cn(Cc2ccc(F)c(F)c2)c(Nc2cc(OC(C)C)ccc2C)nc1=O [Compound I-0555] | 0.01 to 0.1 µM |
| COc1cn(Cc2ccc(F)cc2)c(Nc2cc(C)c(OC(F)F)cc2C)nc1=O [Compound I-0301] | < 0.01 µM |
| Cc1c(Cl)cccc1Nc1nc(=O)c(C(=O)NCC#N)cn1Cc1ccccc1 [Compound I-0075] | 0.1 to 0.5 µM |
| COc1cn(Cc2ccc(F)cc2)c(Nc2ccc(C)cc2C)nc1=O [Compound I-0375] | 0.01 to 0.1 µM |
| COc1cn(Cc2ccccc2)c(Nc2cc(Cl)c(Cl)cc2C)nc1=O [Compound I-0459] | < 0.01 µM |
| CCc1c(Nc2nc(=O)c(OC)cn2Cc2cccc(Cl)c2)cc(OC)cc1OC [Compound I-0362] | < 0.01 µM |
| COc1cn(Cc2ccc(F)cc2)c(Nc2cccc(C(F)(F)F)c2Cl)nc1=O [Compound I-0038] | 0.01 to 0.1 µM |
| CCc1ccc(F)cc1Nc1nc(=O)c(OC)cn1Cc1ccc(F)c(Cl)c1 [Compound I-0567] | 0.01 to 0.1 µM |
| COc1cn(Cc2ccc(F)c(Cl)c2)c(Nc2cc3c(cc2C)OCCO3)nc1=O [Compound I-0292] | 0.01 to 0.1 µM |
| COc1cn(Cc2cccc(Cl)c2)c(Nc2cc3[nH]ncc3cc2C)nc1=O [Compound I-0490] | < 0.01 µM |
| COc1cn(Cc2cc(F)cc(F)c2)c(Nc2cc3sc(C)nc3cc2C)nc1=O [Compound I-0553] | 0.01 to 0.1 µM |
| COc1cc(Nc2nc(=O)c(OC)cn2Cc2ccc(F)c(Cl)c2)c(C)cc1Cl [Compound I-0536] | < 0.01 µM |
| COc1cn(Cc2ccc(F)c(Cl)c2)c(Nc2cc(-n3c(C)ccc3C)ccc2C)nc1=O [Compound I-0526] | 0.01 to 0.1 µM |
| CCc1ccccc1Nc1nc(=O)c(F)cn1Cc1ccc(F)cc1 [Compound I-0140] | 0.01 to 0.1 µM |
| Cc1c(Cl)cccc1Nc1nc(=O)c(CC(=O)NCc2ccccc2)cn1Cc1ccccc1 [Compound I-0341] | 0.1 to 0.5 µM |
| COc1cn(Cc2ccc(Cl)c(Cl)c2)c(Nc2cccc(Cl)c2C)nc1=O [Compound I-0296] | 0.01 to 0.1 µM |
| CCOc1cc(C)c(Nc2nc(=O)c(OC)cn2Cc2cccc(F)c2)cc1C [Compound I-0257] | < 0.01 µM |

| SMILES | IC50 |
| --- | --- |
| COc1cc(Nc2nc(=O)c(F)cn2Cc2ccc(F)c(Cl)c2)c(C)cc1Cl [Compound I-0533] | < 0.01 µM |
| COc1ccccc1CNc1nc(=O)c(OC)cn1Cc1ccccc1 [Compound I-0113] | 0.5 to 1 µM |
| COc1cn(Cc2ccc(F)c(F)c2)c(Nc2cc(C)ccc2C)nc1=O [Compound I-0434] | < 0.01 µM |
| COc1cn(Cc2ccc(F)c(Cl)c2)c(Nc2cc(Cl)c(Cl)cc2C)nc1=O [Compound I-0426] | 0.01 to 0.1 µM |
| COc1cn(Cc2ccccc2F)c(Nc2cc(C)c(Cl)cc2C)nc1=O [Compound I-0167] | 0.01 to 0.1 µM |
| Cc1c(Cl)cccc1Nc1nc(=O)c(-c2ccccc2)cn1Cc1ccccc1 [Compound I-0028] | 0.5 to 1 µM |
| COc1cn(Cc2ccc(F)c(Cl)c2)c(Nc2cc(CO)c(C)cc2C)nc1=O [Compound I-0247] | < 0.01 µM |
| COc1cn(Cc2ccccc2)c(Nc2ccccc2Cc2ccccc2)nc1=O [Compound I-0118] | 0.01 to 0.1 µM |
| COc1cn(Cc2ccc(F)c(Cl)c2)c(Nc2cc(-c3ncco3)ccc2C)nc1=O [Compound I-0549] | < 0.01 µM |
| COc1cn(Cc2cccc(Cl)c2)c(Nc2cc3c(cc2C)OCCO3)nc1=O [Compound I-0290] | 0.01 to 0.1 µM |
| COc1cn(Cc2ccccc2COC(F)F)c(Nc2cccc(Cl)c2C)nc1=O [Compound I-0447] | < 0.01 µM |
| COc1c(C)ccc(Nc2nc(=O)c(OC)cn2Cc2ccc(F)c(Cl)c2)c1C [Compound I-0419] | < 0.01 µM |
| COc1cc(C)c(Nc2nc(=O)c(F)cn2Cc2cccc(Cl)c2)cc1C [Compound I-0348] | < 0.01 µM |
| CCc1cc2c(cc1Nc1nc(=O)c(OC)cn1Cc1ccc(F)cc1)CCC2 [Compound I-0163] | < 0.01 µM |
| COc1cn(Cc2cc(F)cc(Cl)c2)c(Nc2cccc(C)c2Cl)nc1=O [Compound I-0577] | 0.01 to 0.1 µM |
| COc1cn(Cc2ccccc2)c(Nc2cccc(OC(F)F)c2Cl)nc1=O [Compound I-0133] | 0.1 to 0.5 µM |
| Cc1cc(C)c(Nc2nc(=O)c(C(=O)NCc3ccccc3)cn2Cc2ccccc2)cc1C [Compound I-0284] | 0.5 to 1 µM |
| COc1cn(Cc2ccc(F)c(Cl)c2)c(Nc2cc(S(C)(=O)=O)ccc2C)nc1=O [Compound I-0547] | 0.01 to 0.1 µM |

Same assay, conditions: antagonistic activity for the human P2X7 receptor; read-out: IC50

| SMILES | IC50 |
| --- | --- |
| COc1cn(Cc2cc(F)cc(Cl)c2)c(Nc2cc(OC(F)(F)F)ccc2C)nc1=O [Compound I-0694] | 0.1 to 0.5 µM |
| COc1cnc(Nc2cccc(Cl)c2C)n(Cc2cccc(Cl)c2)c1=O [Compound I-0969] | 0.5 to 1 µM |
| COc1cn(Cc2ccc(F)c(Cl)c2)c(Nc2cc(Cl)cc3[nH]ccc23)nc1=O [Compound I-0819] | 0.01 to 0.1 µM |
| COc1cn(Cc2cc(F)cc(Cl)c2)c(Nc2cc(-c3cscn3)ccc2C)nc1=O [Compound I-0752] | 0.01 to 0.1 µM |
| COc1cc(Nc2nc(=O)c(F)cn2Cc2cc(F)c(F)c(F)c2)c(C)cc1F [Compound I-1058] | < 0.01 µM |
| COc1cn(Cc2ccc(F)c(Cl)c2)c(Nc2cc3c(cc2C)OCCC3=O)nc1=O [Compound I-0930] | 0.1 to 0.5 µM |
| CCc1cc(Br)ccc1Nc1nc(=O)c(OC)cn1Cc1cc(F)cc(F)c1 [Compound I-0630] | < 0.01 µM |
| Cc1ccc(C)c(Nc2nc(=N)c(F)cn2Cc2cc(F)c(F)c(F)c2)c1 [Compound I-1294] | 0.01 to 0.1 µM |
| COc1cn(Cc2cc(F)cc(Cl)c2)c(Nc2cc3c(cc2C)OCCO3)nc1=O [Compound I-0710] | 0.01 to 0.1 µM |
| CCc1cc(OC)ccc1Nc1nc(=O)c(F)cn1Cc1cc(F)cc(F)c1 [Compound I-1214] | < 0.01 µM |
| CON=c1nc(Nc2cc3sc(C)nc3cc2C)n(Cc2cc(F)c(F)c(F)c2)cc1F [Compound I-1291] | 0.1 to 0.5 µM |
| O=c1nc(Nc2cccc3[nH]ccc23)n(Cc2ccc(F)c(Cl)c2)cc1F [Compound I-1024] | < 0.01 µM |
| CCc1cc2c(cc1Nc1nc(=O)c(OC)cn1Cc1ccc(F)c(Cl)c1)OC(F)(F)O2 [Compound I-0730] | 0.01 to 0.1 µM |
| COc1cn(Cc2ccccc2)c(Nc2cc(N3CCCC3)ccc2C)nc1=O [Compound I-0883] | 0.01 to 0.1 µM |
| COc1cn(Cc2cc(F)cc(F)c2)c(Nc2cc3nc(C)sc3cc2C)nc1=O [Compound I-0745] | 0.1 to 0.5 µM |
| COc1cn(Cc2cc(F)c(F)c(F)c2)c(Nc2cc(OC(F)(F)F)ccc2C)nc1=O [Compound I-0869] | 0.01 to 0.1 µM |
| Cc1cc(Nc2nc(=O)c(F)cn2Cc2cc(F)c(F)c(F)c2)c(C)cc1Cl [Compound I-1207] | < 0.01 µM |
| Cc1c(Cl)cccc1Nc1nc(=O)c(F)cn1Cc1cc(F)c(F)c(F)c1 [Compound I-1219] | < 0.01 µM |

| SMILES | IC50 |
| --- | --- |
| CCOc1cc(Nc2nc(=O)c(F)cn2Cc2ccc(F)c(F)c2)c(C)cc1F [Compound I-1033] | < 0.01 µM |
| COc1cn(Cc2ccc(F)c(Cl)c2)c(Nc2cc(C)c(OCC(F)(F)F)cc2C)nc1=O [Compound I-0807] | 0.01 to 0.1 µM |
| Cc1ccc(N2CCCC2=O)cc1Nc1nc(=O)c(Cl)cn1Cc1cc(F)cc(F)c1 [Compound I-0701] | < 0.01 µM |
| COc1cn(Cc2ccccc2)c(Nc2cc(-c3ccccc3)ccc2C)nc1=O [Compound I-0827] | 0.01 to 0.1 µM |
| COc1cn(Cc2cccc(F)c2)c(Nc2cccc(OC(F)F)c2C)nc1=O [Compound I-0641] | 0.01 to 0.1 µM |
| COc1cn(Cc2ccc(F)c(Cl)c2)c(Nc2cc(C)c(Cl)cc2C)cc1=O [Compound I-0949] | 0.1 to 0.5 µM |
| Cc1nc2ccc(Nc3nc(=O)c(F)cn3Cc3cc(F)cc(F)c3)c(C)c2s1 [Compound I-1198] | < 0.01 µM |
| COc1cc(Cl)c(Nc2nc(=O)c(F)cn2Cc2cc(F)c(F)c(F)c2)cc1F [Compound I-1239] | < 0.01 µM |
| COc1cn(Cc2cc(F)c(F)c(F)c2)c(Nc2ccc(OCF)cc2C)nc1=O [Compound I-0943] | < 0.01 µM |
| COc1nc2ccc(Nc3nc(=O)c(OC)cn3Cc3ccc(F)c(Cl)c3)c(C)c2s1 [Compound I-0826] | 0.01 to 0.1 µM |
| COc1cn(Cc2cc(F)c(F)c(F)c2)c(Nc2cc(C)c(OC(F)F)cc2C)nc1=O [Compound I-0607] | < 0.01 µM |
| COc1ccc(Nc2nc(=O)cnn2Cc2ccccc2F)c(C)c1 [Compound I-1275] | 0.1 to 0.5 µM |
| COc1cc(F)c(Nc2nc(=O)c(C)nn2Cc2cc(F)c(F)c(F)c2)cc1OC [Compound I-1257] | 0.01 to 0.1 µM |
| COc1cn(Cc2ccc(F)c(Cl)c2)c(Nc2ccc(C#N)cc2C)cc1=O [Compound I-0958] | 0.1 to 0.5 µM |
| Cc1ccc(Cl)c(Nc2nc(=O)c(F)cn2Cc2cc(F)c(F)c(F)c2)c1 [Compound I-1195] | < 0.01 µM |
| COc1cc(Nc2nc(=O)cnn2Cc2cc(F)c(F)c(F)c2)c(C)cc1Cl [Compound I-1279] | < 0.01 µM |
| CCOc1cn(Cc2ccccc2)c(Nc2cc(C)c(OC)cc2C)nc1=O [Compound I-0713] | < 0.01 µM |
| CCOc1ccc(Nc2nc(=O)c(OC)cn2Cc2ccc(F)c(F)c2)c(C)c1 [Compound I-0678] | < 0.01 µM |
